Tests used:
[1] = test system: aged vascular endothelial cells (SA-β-gal); assay: Aging marker SA-β-gal staining in aged vascular endothelial cells (Cellular Senescence Assay kit); type: cell-based, human; conditions: 50 μM, compared to cells treated only with DMSO
Description: The aging of vascular endothelial cells was induced by treating with 50 μM syringaresinol in substantially the same manner as in Test Example 1. The aged cells were washed with PBS and stained at 37° C. for 16 hours using a fixative and a stain provided together with the Cellular Senescence Assay kit (Cell Biolabs, Inc., San Diego, Calif., USA). Next day, the cells were washed with PBS, overlaid with 20% glycerol solution and observed under a microscope. The number of the cells stained green was counted and the activity of the aging marker SA-β-gal was determined.

telomerase = assay: Telomerase activity in aged vascular endothelial cells (TeloTAGGG telomerase PCR ELISA Plus kit); type: cell-based, human; conditions: 50 μM, compared to cells treated only with DMSO, FIG. 5
Description: The aging of vascular endothelial cells was induced by treating with 50 μM syringaresinol or DMSO as control in substantially the same manner as in Test Example 1. The aged cells were washed with PBS and lysed using lysis buffer (Sigma), and the obtained protein was quantitated. Telomerase activity was evaluated using the TeloTAGGG telomerase PCR ELISA Plus kit (Roche Applied Science, Indianapolis, Ind., USA).

eNOS = eNOS protein expression in aged vascular endothelial cells (Western blot); type: cell-based, human; conditions: 50 μM, vs DMSO and young cells, FIG. 6
Description: (§1) In order to evaluate whether syringaresinol can restore the declined function of aged vascular cells to that of young vascular cells, the aging of vascular endothelial cells was induced by treating with 50 μM syringaresinol or DMSO as control in substantially the same manner as in Test Example 1. […] As a result, cardiovascular diseases such as arteriosclerosis can occur easily. The cells treated with syringaresinol or DMSO were washed with PBS and lysed with lysis buffer (Sigma), and the supernatant was recovered. Then, protein present in the supernatant was quantitated using Protein Dye Reagent™ (Bio-Rad). 100 μg of the obtained protein was fractionated by size by electrophoresing on 8% SDS-PAGE and transferred onto PVDF membrane (Bio-Rad) for 12 hours with 50 V. Then, the membrane was blocked for 1 hour with 5% non-fat milk and treated with anti-eNOS, anti-PAI-1 and anti-actin antibodies, as primary antibodies, and horse radish peroxidase (HRP)-conjugated anti-rabbit IgG (Amersham) as secondary antibody, and reacted using the enhanced chemiluminescence (ECL) kit (Amersham). The reacted PVDF membrane exposed to X-ray Fuji film and developed to investigate the protein expression level.

PAI-1 = PAI-1 protein expression in aged vascular endothelial cells (Western blot); type: cell-based, human; conditions: 50 μM, vs DMSO and young cells, FIG. 6
Description: as §1

SIRT1 gene = SIRT1 gene expression promoting effect in aged human vascular endothelial cells (RT-PCR); type: cell-based; conditions: aged human vascular endothelial cells (14 PDL to 40 PDL), 20, 50 or 100 μM every other day, vs DMSO; FIG. 2
Description: The SIRT1 gene expression promoting effect of syringaresinol in aged human vascular endothelial cells was evaluated as follows.
Human vascular endothelial cells purchased from Lonza (Walkersville, Md., USA) were cultured using the endothelial cell growth medium EGM-2 SingleQuots (Lonza) in a 5% CO2 incubator until 70% confluency. […] The population doubling level (PDL) was calculated according to the following equation for each generation until the cell growth was stopped. The PDL value is higher in aged cells. PDL=(Log10 Y−Log10 X)/Log10 2
Y: number of cells at the end of the generation
X: number of cells at the beginning of the generation
14 PDL cells were treated with syringaresinol dissolved in DMSO at a concentration of 20, 50 or 100 μM every other day while inducing aging to 40 PDL cells. The cells of a negative control group were treated with DMSO of 1/1000 of the volume of the medium. The cells treated with each sample were washed 2 times with cold PBS and RNA was extracted using TRIzol reagent (Invitrogen). cDNA was synthesized from the extracted RNA (1 μg/μL) using a reverse transcription system (Promega). Subsequently, the expression pattern of the SIRT1 and GAPDH genes was measured using the synthesized cDNA and predesigned primers and probes (Applied Biosystems; SIRT1, Hs01009006_m1; GAPDH, Hs99999905_m1). […]

COc1cc(C2OCC3C(c4cc(OC)c(O)c(OC)c4)OCC23)cc(OC)c1O (stereo not drawn) [syringaresinol]
number of green-stained (SA-β-gal) cells ([1]; FIG. 3 and 4): remarkably smaller number of green-stained cells | decrease of SA-β-gal activity ([1]; FIG. 4): ~50% | increase of telomerase activity (telomerase): about 30% | eNOS expression (eNOS): increased eNOS expression comparable to that of young cells | PAI-1 expression (PAI-1): decreased PAI-1 expression comparable to that of young cells | SIRT1 gene expression (SIRT1 gene): increases the decreased SIRT1 expression in aged vascular endothelial cells in a concentration-dependent manner
